Assay results: US7939540B2, “4-(3-benzoylaminophenyl)-6,7-dimethoxy-2-methylaminoquinazoline derivatives” (Eisai R&D Management Co., Ltd., priority 2006, dated 2011)
Read-outs that look alike come from different tables or passages of the source.

What was measured:
[1] = tested on: CYPs; assay: Induction potency on CYPs in cryopreserved human hepatocytes, overall statement; format: in vitro ADME; conditions: cryopreserved human hepatocytes, 1, 3 and 10 μM; result in words
Experimental: The ability to induce CYP1A2 or CYP3A4 was calculated in the same manner described above.

[2] = tested on: CYP1A2; conditions: human, hepatocytes
Experimental: (§1) Cryopreserved human hepatocytes (XenoTeck) were rapidly thawed at 37° C., and viable cells were obtained using Hepatocytes Isolation Kit (Nosan Corporation). After cells prepared were diluted with ice cold William's Medium E (10% FBS, +PSG) to give a concentration of 5×10^5 viable cells/mL, the cells were seeded onto a 48-well collagen-coated plate (BD Biosciences) at a concentration of 1×10^5 cells/cm^2 and cultured at 37° C. in 5% CO2 for 24 hours. Then, the medium was replaced with Hepato-STIM (registered trade mark: BD Biosciences) (+EGF, PSG, −FBS), and the cells were further cultured at 37° C. in 5% CO2 for 24 hours. […] The culture medium containing test compound, β-NF or Rif was replaced every 24 hours. Test compound, β-NF and Rif were each dissolved in dimethyl sulfoxide (DMSO: Wako Pure Chemical Industries, Ltd.), and culture medium containing test compound (final concentrations; 1, 3 and 10 μM), β-NF (final concentration; 10 μM) or Rif (final concentration; 10 μM) was prepared by adding them to Hepato-STIM(+EGF, PSG, −FBS), respectively. Final concentration of DMSO was set to be 0.1%, and culture medium containing 0.1% DMSO was used for control. After completion of the treatment, the cells were washed with PBS once, and total RNA was purified using Total RNA Purification Kit (Applied Biosystems). The purified total RNA was subjected to reverse transcription reaction using TaqMan Reverse Transcription Reagents (Applied Biosystems) to synthesize cDNA, where oligo dT was used as a primer. The reaction was carried out using Gene Amp PCR system 9700 at 25° C. for 10 minutes, followed by at 48° C. for 60 minutes. Then, reverse transcriptase was deactivated at 95° C. for 10 minutes. The levels of mRNA for CYP1A1 and GAPDH were quantified using SYBR Green PCR Core Reagents Kit (Applied Biosystems), and those for CYP1A2 and that of CYP3A4 were measured using Taqman PCR Core Reagents Kit (Applied Biosystems) and ABI Prism 7900 Sequence Detection System (Applied Biosystems).
(§2) * A cycle consisting of denaturation, annealing, and elongation reaction, was repeated 50 times.
(§3) The ability of a test compound to induce CYP1A1 was calculated as follows: Ability of a test compound to induce CYP1A1 (%)={[(amount of mRNA of CYP1A1 in test compound treated cells)/(amount of mRNA of GAPDH in test compound treated cells)]/[(amount of mRNA of CYP1A1 in control cells)/(amount of mRNA of GAPDH in control cells)]−1}/{[(amount of mRNA of CYP1A1 in positive control treated cells)/(amount of mRNA of GAPDH in positive control treated cells)]/[(amount of mRNA of CYP1A1 in control cells)/(amount of mRNA of GAPDH in control cells)]−1}×100

[3] = tested on: CYP3A4; assay: Induction potency of drug metabolizing enzyme (CYP) using cryopreserved human hepatocytes, CYP3A4 mRNA; conditions: approximately 48 hours, mRNA normalised to GAPDH, positive control rifampicin 10 μM
Experimental: as §1, §2, §3

[4] = tested on: CYP1A1; conditions: human, hepatocytes
Experimental: as §1, §2, §3

| Compound | Induction Ability compared to positive control (%) CYP1A2 ([2]; 1 μM) | Induction Ability compared to positive control (%) CYP1A2 ([2]; 3 μM) | Induction Ability compared to positive control (%) CYP1A2 ([2]; 10 μM) | Induction Ability compared to positive control (%) CYP3A4 ([3]; test compound 1 μM) | Induction Ability compared to positive control (%) CYP3A4 ([3]; test compound 3 μM) | Induction Ability compared to positive control (%) CYP3A4 ([3]; test compound 10 μM) | Induction Ability compared to positive control (%) CYP1A1 ([4]; 1 μM) | Induction Ability compared to positive control (%) CYP1A1 ([4]; 3 μM) | Induction Ability compared to positive control (%) CYP1A1 ([4]; 10 μM) | induction potency on CYPs [1] |
| --- | --- | --- | --- | --- | --- | --- | --- | --- | --- | --- |
| CNc1nc(-c2cccc(NC(=O)c3ccccc3)c2)c2cc(OC)c(OC)cc2n1 [Comparative example, 4-(3-benzoylaminophenyl)-6,7-dimethoxy-2-methylaminoquinalozine, reference compound] | 7.2% | 34.3% | 35.0% | 1.6% | 10.8% | 17.0% | 2.1% | 18.5% | 51.9% | induction potency on CYPs was observed |
| CCOC(=O)c1ccc(C(=O)Nc2cccc(-c3nc(NC)nc4cc(OC)c(OC)cc34)c2)cc1 [Example 4, ethyl N-[3-(6,7-dimethoxy-2-methylaminoquinazolin-4-yl)phenyl]terephthalamic acid] | −1.1% | 0.6% | 6.1% | −5.6% | −6.1% | 0.1% | 0.1% | 0.4% | 1.5% | – |
| CNC(=O)c1ccc(C(=O)Nc2cccc(-c3nc(NC)nc4cc(OC)c(OC)cc34)c2)cc1 [Example 5, N-[3-(6,7-dimethoxy-2-methylaminoquinazolin-4-yl)phenyl]-N′-methylterephthalamide] | −2.0% | −1.3% | 0.5% | −6.9% | −6.2% | −2.0% | 0.0% | 0.0% | 0.0% | – |
| CNc1nc(-c2cccc(NC(=O)c3ccc(C(=O)OC(C)C)cc3)c2)c2cc(OC)c(OC)cc2n1 [Example 7, isopropyl N-[3-(6,7-dimethoxy-2-methylaminoquinazolin-4-yl)phenyl]terephthalamic acid] | 0.5% | 1.5% | 3.1% | −6.6% | −9.8% | −11.9% | 0.2% | 1.8% | 5.7% | – |
| CNC(=O)c1cccc(C(=O)Nc2cccc(-c3nc(NC)nc4cc(OC)c(OC)cc34)c2)c1 [Example 16, N-[3-(6,7-dimethoxy-2-methylaminoquinazolin-4-yl)phenyl]-N′-methylisophthalamide] | 0.2% | 3.9% | 1.2% | −0.7% | −0.3% | 2.7% | 0.0% | 0.3% | 1.0% | – |
| CNc1nc(-c2cccc(NC(=O)c3ccc(C(=O)OCCOC)cc3)c2)c2cc(OC)c(OC)cc2n1 [Example 20, N-[3-(6,7-dimethoxy-2-methylaminoquinazolin-4-yl)phenyl]terephthalamic acid 2-methoxyethyl ester] | −1.7% | −1.6% | −1.2% | −2.0% | −2.1% | −2.2% | 0.1% | 0.1% | 0.8% | – |

Now from value to compound, other results behind:

| Induction Ability compared to positive control (%) CYP1A2 ([2]; 1 μM) | Induction Ability compared to positive control (%) CYP1A2 ([2]; 3 μM) | Induction Ability compared to positive control (%) CYP1A2 ([2]; 10 μM) | Induction Ability compared to positive control (%) CYP3A4 ([3]; test compound 1 μM) | Induction Ability compared to positive control (%) CYP3A4 ([3]; test compound 3 μM) | Induction Ability compared to positive control (%) CYP3A4 ([3]; test compound 10 μM) | Induction Ability compared to positive control (%) CYP1A1 ([4]; 1 μM) | Induction Ability compared to positive control (%) CYP1A1 ([4]; 3 μM) | Induction Ability compared to positive control (%) CYP1A1 ([4]; 10 μM) | Compound | induction potency on CYPs [1] |
| --- | --- | --- | --- | --- | --- | --- | --- | --- | --- | --- |
| 1.2% | 3.0% | 1.8% | 0.7% | −0.1% | −1.5% | 0.2% | 0.3% | 0.7% | CCCOC(=O)c1cccc(C(=O)Nc2cccc(-c3nc(NC)nc4cc(OC)c(OC)cc34)c2)c1 [Example 14, propyl N-[3-(6,7-dimethoxy-2-methylaminoquinazolin-4-yl)phenyl]isophthalic acid] | – |
| 0.6% | −0.3% | 0.4% | −1.2% | −1.6% | −2.0% | 0.0% | 0.0% | 0.1% | CNc1nc(-c2cccc(NC(=O)c3cccc(C(=O)OCCOC)c3)c2)c2cc(OC)c(OC)cc2n1 [Example 21, N-[3-(6,7-dimethoxy-2-methylaminoquinazolin-4-yl)phenyl]isophthalamic acid 2-methoxyethyl ester] | – |
